According to patent publication US8632821B2, “Use of xenon for treating hypersensitivity to pain” (L'Air Liquide, Société Anonyme pour l'Etude et …, priority 2009, dated 2014):
“Also recorded” adds a separate entry of the source.

System: male Sprague-Dawley rats
Test: Carrageenan model of inflammatory pain, paw-pressure vocalization test (Randall-Selitto)
Format: in vivo, rat
Description: In order to show the efficacy of the gas mixture according to the invention in the prevention of post-traumatic hyperalgesia, a model of inflammatory pain was used in rats, namely male Sprague-Dawley rats, in the context of preclinical studies.
An inflammatory product, carrageenan (0.2 ml of saline solution with 1% of carrageenan), was injected subcutaneously into the sole of the hind paw of a rat.
Two xenon concentrations by volume were tested, namely: • a ternary gas mixture made up of 25% Xe+25% N2+50% O2, and • a binary gas mixture made up of 50% Xe+50% O2.
The nociceptive threshold, i.e. the pain threshold, was evaluated using the paw-pressure vocalization test (Randall-Selitto), in which increasing pressures (measured in grams) are applied to the hind paw of the rat until the rat squeaks.
More specifically, on Day 0 (D0), the inflammatory product, i.e. the carrageenan (Car), was injected into a hind paw of the rats.
The exposure of the rats to the gases by inhalation begins 1 h 45 after the injection of Car and lasts for 1 h 45. The nociceptive threshold is evaluated 1 h 30, 2 h 30, 3 h 00, 3 h 30 and 4 h 30 after the injection of Car and then once a day until a return to the basal nociceptive threshold.

Structure (SMILES): [Xe] [xenon]
- analgesic effect during administration, 50% content compared with 25% content (50% Xe+50% O2 (FIG. 2A) versus 25% Xe+25% N2+50% O2 (FIG. 1A), inflamed paw): more effective
- analgesic effect during administration (nociceptive threshold) (inhaled xenon 25% or 50% by volume, exposure 1 h 45 starting 1 h 45 after carrageenan, inflamed paw): has an analgesic effect
- duration of delayed hyperalgesia on the inflamed paw (xenon at 25% (25% Xe+25% N2+50% O2) inhaled 1 h 45, control air/Car 4 days, FIG. 1A): 2 days
- delayed hyperalgesia on the inflamed paw (xenon at 50% (50% Xe+50% O2) inhaled 1 h 45, FIG. 2A): totally prevents
- delayed hyperalgesia on the non-inflamed paw (xenon at 50% (50% Xe+50% O2) inhaled 1 h 45, FIG. 2B): totally prevents; also recorded: completely prevents
